The record followed here is patent US20240075087A1, “COMPOSITIONS AND METHODS COMPRISING HEMP EXTRACT FOR THE TREATMENT OF ANIMALS IN NEED” (Portland Technology Holdings LLC, priority 2021, published 2024).

The target of one data set is T1, CYP2B11 (Canis lupus familiaris, UniProt P24460).
T1 sequence (P24460 1-494): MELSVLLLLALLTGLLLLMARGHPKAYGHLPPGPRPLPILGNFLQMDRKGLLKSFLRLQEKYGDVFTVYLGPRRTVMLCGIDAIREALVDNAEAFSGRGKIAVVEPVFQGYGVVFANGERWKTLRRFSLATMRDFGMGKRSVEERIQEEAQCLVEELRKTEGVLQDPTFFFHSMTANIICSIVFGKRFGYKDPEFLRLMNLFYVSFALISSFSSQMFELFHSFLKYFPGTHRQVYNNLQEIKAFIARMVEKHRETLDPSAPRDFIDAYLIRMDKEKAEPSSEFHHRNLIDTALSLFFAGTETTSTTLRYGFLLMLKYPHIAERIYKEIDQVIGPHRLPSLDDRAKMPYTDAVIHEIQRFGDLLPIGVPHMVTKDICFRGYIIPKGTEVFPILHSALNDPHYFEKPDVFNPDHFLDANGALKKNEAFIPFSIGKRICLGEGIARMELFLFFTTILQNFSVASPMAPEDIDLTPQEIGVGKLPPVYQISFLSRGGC
The data set is described as follows: CYP2B11 activity inhibition in pooled dog liver microsomes. Here is the method: Inhibition potency (i.e. IC50) is determined by measuring the decrement in metabolism of P450-specific marker activities in pooled dog liver microsomes with increasing concentrations of CBD, CBDA, and hemp extracts. P450-specific markers include bupropion 6-hydroxylation (CYP2B11), dextromethorphan 0-demethylation (CYP2D15) and omeprazole sulfoxidation (CYP3A12). IC50 values are determined both with and without preincubation of liver microsomes with potential inhibitor to evaluate whether there is mechanism-based time-dependent inhibition.
The following parameters are assessed: (1) the rates of CBD and CBDA metabolism by dog liver microsomes and by 11 recombinant canine P450 enzymes; (2) the predicted percent contribution of each P450 to total CBD and CBDA metabolism in dog liver; and (3) IC50 values for inhibition of CYP2B11, CYP2D15 and CYP3A12 metabolism in dog liver, both with and without inhibitor preincubation.
FIGS. 13-15 show activity assays for CYP3A12 (FIGS. 13A and 13B), CYP2B11 (FIGS. 14A and 14B), and CYP2D15 (FIGS. 15A and 15B). Assays using either no preincubation (FIGS. 13A, 14A, and 15A) or 20 minutes of preincubation (FIGS. 13B, 14B, and 15B) were performed.
Background: Microsomes from liver hold many membrane-bound enzymes, among them those of drug oxidation.

For the next data set, the target named is T2, CYP2D15 (Canis lupus familiaris, UniProt Q29473).
T2 construct: P450-specific marker activities in pooled dog liver microsomes; from tissue; host or cells: pooled dog liver microsomes
T2 sequence (Q29473 1-500): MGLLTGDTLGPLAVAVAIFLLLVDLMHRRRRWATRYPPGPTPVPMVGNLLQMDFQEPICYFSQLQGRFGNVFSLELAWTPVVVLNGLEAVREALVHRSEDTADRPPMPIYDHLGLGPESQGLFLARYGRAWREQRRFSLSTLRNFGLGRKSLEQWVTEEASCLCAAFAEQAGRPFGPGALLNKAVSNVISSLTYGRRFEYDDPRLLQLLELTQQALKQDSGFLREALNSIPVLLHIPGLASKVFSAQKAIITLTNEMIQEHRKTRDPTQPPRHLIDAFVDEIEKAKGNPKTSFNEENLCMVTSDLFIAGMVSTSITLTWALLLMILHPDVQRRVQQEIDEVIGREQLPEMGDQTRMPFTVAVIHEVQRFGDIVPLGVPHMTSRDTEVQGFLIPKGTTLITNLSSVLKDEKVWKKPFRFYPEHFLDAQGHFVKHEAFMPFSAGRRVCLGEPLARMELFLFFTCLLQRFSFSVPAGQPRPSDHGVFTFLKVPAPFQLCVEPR
The experiment in a line: CYP2D15 activity inhibition in pooled dog liver microsomes. The class given is in vitro ADME. As to conditions: no preincubation vs 20 min preincubation, 10 μM.

The subject of a further data set is CMT12 and D17 cells. The experiment in a line: LC3A/B immunofluorescence. The class given is cell-based, canine. The conditions noted are these: 10 μg/mL CBD, 6 hours. How it is done: CMT12 and D17 adherent cell lines are split into Nunc chamber slides (ThermoFisher Scientific, Rochester, New York) and the cells that are 70% confluent are treated for 6 hours with either methanol control or 10 μg/mL of CBD. Cells are fixed with 4% paraformaldehyde for 1 hour and then permeabilized with PBS containing 0.1% Triton X-100 for 30 minutes. Cells are then washed with PBS and incubated with bovine serum albumin (Sigma Aldrich, St. Louis, Missouri) for 30 minutes and then goat anti-serum (Vector Labs, Burlingame, California) for 1 hour and then washed twice with PBS for 10 minutes while rocking at room temperature. […] Coverslips are mounted using Vectrashield DAPI mounting media (Vector Labs, Burlingame, California) and the images are captured at the same fluorescence intensity for each image at 400 or 600 magnification and processed using an Olympus fluorescent microscope and DP controller software (Olympus Corp., Center Valley, Pennsylvania).

What is called IC50 is the concentration at which inhibition is half-maximal. Read a low IC50 as greater potency in that assay. `C=C(C)[C@@H]1CCC(C)=C[C@H]1c1c(O)cc(CCCCC)cc1O` [CBD, cannabidiol] displayed an IC50 against CYP2B11 of less than 1 µM. The “time-dependent inhibition (TDI)” value on CYP2B11 (CYP2B11, no preincubation vs 20 min preincubation, 10 μM) is “showed time-dependent inhibition (TDI)”; on CYP2D15 it was “showed time-dependent inhibition (TDI)”. Further, the LC3A/B immunofluorescence entry in the data set on CMT12 and D17 cells is recorded as “numerous discrete punctate intensely staining vesicles”.
